The subject of assay [1] is MV-4-11 (human myeloid monocytic leukemia cell line). Kind of assay: Proliferation inhibition activity of compounds to MV-4-11 cells (CellTiter-Glo). To be noted: MV4-11 cells, 72 h dosing. Format: cell-based. How it is done: MV-4-11 (human myeloid monocytic leukemia cell line, culture medium: JIMDM+10% fetal bovine serum) is purchased from Cobioer Biosciences Co., Ltd and cultured in a 5% C02 incubator at 37° C. The cells in a logarithmic growth phase are plated in a 96-well plate at cell densities of 8000 cells/well, 6000 cells/well, 2000 cells/well, 2000 cells/well and 3000 cells/well, and a blank control group is set at the same time.
A compound to be tested and the positive drug are dissolved in dimethyl sulfoxide to prepare a 10 mM stock solution, which is then stored in −80° C. refrigerator for long-time storage. After the cells are plated for 24 h, the 10 mM compound stock solution is diluted with dimethyl sulfoxide to obtain a working solution having a 200-fold concentration (the highest concentration is 200 or 2000 μM, a 3-fold gradient, a total of 10 concentrations), and 3 μL of the working solution of each concentration is added to 197 μL of complete medium, and diluted into a working solution of 3-fold concentration. 50 μL of the working solution is then taken and added to a 100 μL cell culture medium (a final concentration of dimethyl sulfoxide is 0.5%, v/v), and two complex holes are set for each concentration. After 72 h of dosing treatment, 50 μl of CellTiter-Glo® (purchased from Promega) is added to each well. Fluorescence signals are measured on Envision (PerkinElmer) according to an operating procedure of the specification. GraphPad Prism 5 software log(inhibitor) vs. response-Variable slope is used to fit a dose-response curve, so as to obtain the IC50 value of the compound to the inhibition of cell-proliferation. The calculation formulation of the inhibition rate is as follows: […]
wherein: signal value of subject: a mean fluorescence signal of cell+medium+compound group; signal value of blank group: a mean fluorescence signal of medium group (containing 0.5% DMSO); signal value of negative control group: a mean fluorescence signal of cell+medium group (containing 0.5% DMSO).
On the technique in general: In ATP-based viability assays light output follows the ATP content of the culture.

Another assay has as its target T1, AXL kinase (Homo sapiens, UniProt P30530).
T1 construct: purchased Carna 08-107
T1 sequence (P30530 473-894 limits assumed): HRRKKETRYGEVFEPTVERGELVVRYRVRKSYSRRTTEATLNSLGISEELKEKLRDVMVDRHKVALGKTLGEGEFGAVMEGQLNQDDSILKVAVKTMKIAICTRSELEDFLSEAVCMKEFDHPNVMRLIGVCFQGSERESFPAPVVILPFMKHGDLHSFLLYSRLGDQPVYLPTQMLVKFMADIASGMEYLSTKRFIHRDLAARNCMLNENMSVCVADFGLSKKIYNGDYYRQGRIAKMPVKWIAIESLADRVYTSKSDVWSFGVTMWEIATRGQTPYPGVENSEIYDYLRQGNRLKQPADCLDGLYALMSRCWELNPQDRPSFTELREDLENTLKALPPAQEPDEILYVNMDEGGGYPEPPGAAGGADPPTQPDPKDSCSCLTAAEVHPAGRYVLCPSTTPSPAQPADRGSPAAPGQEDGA
Description: Inhibitory activity of compound against AXL kinase (HTRF KinEASE). Format: biochemical. To be noted: AXL enzyme (Carna, 08-107), ATP 15 μM; "<" means below detection limit of the test. How it is done: a) AXL enzyme (Carna, 08-107) configuration and addition: a 1×enzyme buffer (200 μL of Enzymatic buffer kinase 5×, 10 μL of 500 mM MgCl2, 10 μL of 100 mM DTT and 6.26 μL of 2500 nM SEB are added with […] of H2O, and prepared into 1 ml of 1× enzyme buffer) is used. AXL enzyme is diluted from 33.33 ng/uL to 0.027 ng/μL (1.67×, final conc.=0.016 ng/uL), a BioTek (MultiFlo FX) automatic liquid dispenser is used, and 6 μL of enzyme solution having a 1.67-fold final concentration is added respectively to compound wells and positive control wells; and 6 μL of 1×Enzymatic buffer is added to negative control wells.
b) Compound preparation and addition: the compounds and positive drugs prepared in the examples are diluted from 10 mM to 100 μM by DMSO, and titrated with a compound titrator (Tecan, D300e). The titrated solution is automatically sprayed by the titrator to each well to reach a required concentration, wherein the first concentration is 1 μM, and after ½ log dilution, a total of 8 concentrations are obtained. The resulting mixture is centrifuged at 2500 rpm for 30 s and incubated at room temperature for 15 min.
c) Preparation and addition of ATP and substrate: ATP (Sigma, A7699) is diluted with 1× enzyme buffer from 10 mM to 75 μM (5×), and the final concentration is 15 μM; the substrate TK Substrate 3-biotin (Cisbio, 61TK0BLC) is diluted with 1× enzyme buffer from 500 μM to 5 μM (5×), andthe final concentration is […]; ATP and the substrate are mixed in equal volume to obtain a mixed solution; the mixed solution is added to each well at 4 μL by using a BioTek automatic dispenser; centrifuged at 2500 rpm for 30 s, and reacted at 25° C. for 45 min.
d) Pirparation and addition of detection reagent: Streptavidin-XL665 (Cisbio, 610SAXLG) is diluted with HTRF KinEASE detection buffer (cisbio) from 16.67 μM to 250 nM (4×), and the final concentration is 62.5 nM; TK Antibody-Cryptate (Cisbio) is diluted with HTRF KinEASE detection buffer (cisbio) from 100× to 5×, and the final concentration is 1×; XL665 and Antibody are mixed in equal volume; the mixed solution is added to each well at 10 μL by using the BioTek automatic dispenser, centrifuged at 2500 rpm for 30 s, and reacted at 25° C. for 1 h. After the reaction is completed, the resulting product is detected by a multi-function plate reader HTR1p
GraphPad Prism 5 software log (inhibitor) vs. response-Variable slope is used to fit a dose-response curve to obtain the IC50 value of the compound to the inhibition of AXL kinase.
The calculation formula of the inhibition rate is as follows: […]
A general note: In TR-FRET formats the signal depends on donor and acceptor labels being close together.

The term IC50 denotes the concentration needed to halve the response being measured. Read a low IC50 as higher potency.

In turn, `CP(C)(=O)c1cc(OC(F)F)ccc1Nc1nc(Nc2ccc3c(c2)CC[C@@H](N2CCCC2)CC3)ncc1Cl` [Example 75, (S)-(2-((5-chloro-2-((7-(pyrrolidin-1-yl)-6,7,8,9-tetrahydro-5H-benzo[7]annulen-2-yl)amino)pyrimidin-4-yl)amino)-5-(difluoromethoxyl)phenyl)dimethyl phosphine oxide] returned an IC50 in assay [1] of 2.93 nM.

As to `CNC(=O)c1ccc(Nc2nc(Nc3ccc4c(c3)CC[C@@H](N3CCCC3)CC4)ncc2Cl)c(P(C)(C)=O)c1` [Example 77, (S)-4-((5-chloro-2-((7-(pyrrolidin-1-yl)-6,7,8,9-tetrahydro-5H-benzo[7]annulen-2-yl)amino)pyrimidin-4-yl)amino)-3-(dimethylphosphoryl)-N-methylbenzamide], 10.1 nM corresponded to half-maximal inhibition in assay [1] (IC50).

Turning to `CP(C)(=O)c1cc(OC(F)(F)F)ccc1Nc1nc(Nc2ccc3c(c2)CC[C@@H](N2CCCC2)CC3)ncc1Cl` [Example 76, (S)-(2-((5-chloro-2-((7-(pyrrolidin-1-yl)-6,7,8,9-tetrahydro-5H-benzo[7]annulen-2-yl)amino)pyrimidin-4-yl)amino)-5-(trifluoromethoxyl)phenyl)dimethyl phosphine oxide], the IC50 in assay [1] came out at 7.98 nM.

At AXL kinase, `CP(C)(=O)c1cc(N2CC3(COC3)C2)ccc1Nc1nc(Nc2ccc3c(c2)CC[C@@H](N2CCCC2)CC3)ncc1Cl` [Example 119, (S)-(2-((5-chloro-2-((7-(pyrrolidin-1-yl)-6,7,8,9-tetrahydro-5H-benzo[7]annulen-2-yl)amino)pyrimidin-4-yl)amino)-5-(2-oxa-6-azaspiro[3.3]heptan-6-yl)phenyl)dimethyl phosphine oxide] registered an IC50 of 9.24 nM.

Consider `CP(C)(=O)c1cc(C2CC2)ccc1Nc1nc(Nc2ccc3c(c2)CC[C@@H](N2CCCC2)CC3)ncc1Cl` [Example 112, (S)-(2-((5-chloro-2-((7-(pyrrolidin-1-yl)-6,7,8,9-tetrahydro-5H-benzo[7]annulen-2-yl)amino)pyrimidin-4-yl)amino)-5-cyclopropylphenyl)dimethyl phosphine oxide], for which, at AXL kinase, 2.41 nM corresponded to half-maximal inhibition (IC50).

Regarding `Cc1ccc(Nc2nc(Nc3ccc4c(c3)CC[C@@H](N3CCCC3)CC4)ncc2Cl)c(P(C)(C)=O)n1` [Example 81, (S)-(3-((5-chloro-2-((7-(pyrrolidin-1-yl)-6,7,8,9-tetrahydro-5H-benzo[7]annulen-2-yl)amino)pyrimidin-4-yl)amino)-6-methylpyridin-2-yl)dimethyl phosphine oxide], in assay [1], half-maximal inhibition (IC50) required 3.13 nM.

Turning to `CNC(=O)c1cccnc1Nc1nc(Nc2ccc3c(c2)CC[C@@H](N2CCCC2)CC3)ncc1Cl` [Example 21, (S)-2-((5-chloro-2-((7-(pyrrolidin-1-yl)-6,7,8,9-tetrahydro-5H-benzo[7]annulen-2-yl)amino)pyrimidin-4-yl)amino)-N-methylnicotinamide], at AXL kinase, inhibition was half-maximal at 6.53 nM (IC50).

`CP(C)(=O)c1cc(C#N)ccc1Nc1nc(Nc2ccc3c(c2)CC[C@@H](N2CCCC2)CC3)ncc1Cl` [Example 54, (S)-4-((5-chloro-2-((7-(pyrrolidin-1-yl)-6,7,8,9-tetrahydro-5H-benzo[7]annulen-2-yl)amino)pyrimidin-4-yl)amino)-3-(dimethylphosphoryl)benzonitrile]: on AXL kinase, the IC50 was 3.1 nM.

The compound `Cc1cc(Nc2nc(Nc3ccc4c(c3)CC[C@@H](N3CCCC3)CC4)ncc2Cl)c(P(C)(C)=O)cc1F` [Example 129, (S)-(2-((5-chloro-2-((7-(pyrrolidin-1-yl)-6,7,8,9-tetrahydro-5H-benzo[7]annulen-2-yl)amino)pyrimidin-4-yl)amino)-5-fluoro-4-methylphenyl)dimethyl phosphine oxide] yielded an IC50 against AXL kinase of 9.68 nM.

Turning to `CP(C)(=O)c1cc(-n2cnnn2)ccc1Nc1nc(Nc2ccc3c(c2)CC[C@@H](N2CCCC2)CC3)ncc1Cl` [Example 109, (S)-(2-((5-chloro-2-((7-(pyrrolidin-1-yl)-6,7,8,9-tetrahydro-5H-benzo[7]annulen-2-yl)amino)pyrimidin-4-yl)amino)-5-(1H-tetrazol-1-yl)phenyl)dimethyl phosphine oxide], in assay [1], the IC50 came to 8.56 nM.

On AXL kinase, `CNC(=O)c1ncsc1Nc1nc(Nc2ccc3c(c2)CC[C@@H](N2CCCC2)CC3)ncc1Cl` [Example 26, (S)-5-((5-chloro-2-((7-(pyrrolidin-1-yl)-6,7,8,9-tetrahydro-5H-benzo[7]annulen-2-yl)amino)pyrimidin-4-yl)amino)-N-methylthiazole-4-carboxamide] gave an IC50 of 7.21 nM.

For `[2H]C([2H])([2H])P(=O)(c1ccccc1Nc1nc(Nc2ccc3c(c2)CC[C@@H](N2CCCC2)CC3)ncc1Cl)C([2H])([2H])[2H]` [Example 56, (S)-(2-((5-chloro-2-((7-(pyrrolidin-1-yl)-6,7,8,9-tetrahydro-5H-benzo[7]annulen-2-yl)amino)pyrimidin-4-yl)amino)phenyl)bis(methyl-d3) phosphine oxide], the IC50 on AXL kinase was 2.04 nM.

In turn, `Cc1ccc(P(C)(C)=O)c(Nc2nc(Nc3ccc4c(c3)CC[C@@H](N3CCCC3)CC4)ncc2Cl)c1` [Example 130, (S)-(2-((5-chloro-2-((7-(pyrrolidin-1-yl)-6,7,8,9-tetrahydro-5H-benzo[7]annulen-2-yl)amino)pyrimidin-4-yl)amino)-4-methylphenyl)dimethyl phosphine oxide] yielded a 50% inhibitory concentration (IC50) at AXL kinase of 12.3 nM.

For `CNC(=O)c1cnc(OC)cc1Nc1nc(Nc2ccc3c(c2)CC[C@@H](N2CCCC2)CC3)ncc1Cl` [Example 43, (S)-4-((5-chloro-2-((7-(pyrrolidin-1-yl)-6,7,8,9-tetrahydro-5H-benzo[7]annulen-2-yl)amino)pyrimidin-4-yl)amino)-6-methoxyl-N-methylnicotinamide], the 50% inhibitory concentration (IC50) against AXL kinase was 9.87 nM.

On AXL kinase, `CNC(=O)c1c(Nc2nc(Nc3ccc4c(c3)CC[C@@H](N3CCCC3)CC4)ncc2Cl)ccnc1OC` [Example 44, (S)-4-((5-chloro-2-((7-(pyrrolidin-1-yl)-6,7,8,9-tetrahydro-5H-benzo[7]annulen-2-yl)amino)pyrimidin-4-yl)amino)-2-methoxyl-N-methylnicotinamide] came in with an IC50 of 1.47 nM.

Values taken from patent publication US20230227484A1, “PYRIMIDINE COMPOUND AS AXL INHIBITOR” (NANJING CHIA TAI TIANQING PHARMACEUTICAL CO., LTD., priority 2020, published 2023).
